Data on 3 compounds can be found in patent US20250368633A1, “AZEPINE FUSED RING COMPOUND AS RIPK1 INHIBITOR AND USE THEREOF” (ARTIVILA BIOPHARMA, priority 2022, published 2025).

In assay [1] the test system is U937 cells. The assay can be described thus: Inhibition rate of compound (1 μM) on necroptosis of U937 cells (TSZ-induced, CellTiter-Glo). The assay is classed as cell-based. Particulars: TSZ (hTNF-α, SM-164, Z-VAD-FMK) 20 hours. A digest of the protocol: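 Percent inhibition comes from ATP luminescence (CellTiter-Glo), referenced to wells without TSZ and wells with TSZ alone. The compound was added to U937 cells 15 min ahead of a TNF-α/SM-164/Z-VAD-FMK mix, followed by 20 h culture at 37° C, 5% CO2.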
Background: Cellular ATP, detected with luciferase, serves as a proxy for viable cell number.

The target of assay [2] is T1, RIPK1 kinase (Homo sapiens, UniProt Q13546).
T1 construct: purchased Promega VA7593
T1 sequence (Q13546 1-671): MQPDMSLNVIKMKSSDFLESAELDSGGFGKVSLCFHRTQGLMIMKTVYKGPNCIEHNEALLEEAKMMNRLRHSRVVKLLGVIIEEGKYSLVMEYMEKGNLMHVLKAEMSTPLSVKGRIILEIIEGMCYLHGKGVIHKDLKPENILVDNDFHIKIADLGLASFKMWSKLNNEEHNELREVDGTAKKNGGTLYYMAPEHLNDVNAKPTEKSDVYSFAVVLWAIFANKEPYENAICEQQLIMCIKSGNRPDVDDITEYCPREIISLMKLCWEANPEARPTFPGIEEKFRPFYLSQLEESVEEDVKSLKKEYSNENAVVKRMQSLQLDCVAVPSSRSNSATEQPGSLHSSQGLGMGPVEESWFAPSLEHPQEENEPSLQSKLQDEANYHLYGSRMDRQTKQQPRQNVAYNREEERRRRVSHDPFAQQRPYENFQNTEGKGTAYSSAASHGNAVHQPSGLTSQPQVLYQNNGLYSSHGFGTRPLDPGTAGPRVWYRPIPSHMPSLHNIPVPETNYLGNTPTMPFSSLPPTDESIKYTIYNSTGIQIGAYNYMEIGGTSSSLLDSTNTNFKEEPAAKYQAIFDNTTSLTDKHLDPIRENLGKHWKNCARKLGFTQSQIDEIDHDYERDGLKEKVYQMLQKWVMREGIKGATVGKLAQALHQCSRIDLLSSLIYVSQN
The assay can be described thus: In vitro RIPK1 kinase activity IC50 assay (ADP-Glo). Type of assay: biochemical. Particulars: ATP 10 μM; MBP substrate 100 μg/mL; 8 concentration points; read-out: IC50 range of compounds for RIPK1 kinase activity. A digest of the protocol:
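Human RIPK1 preincubated 15 min at room temperature with compound (8-point 1:5 dilution series, 1% DMSO in kinase buffer D). Reaction then ran 1 h with 10 μM ATP and 100 μg/mL MBP substrate; ADP measured by ADP-Glo luminescence, IC50 from four-parameter nonlinear fit.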
On the technique in general: ADP-Glo turns the ADP formed in a reaction into a luminescent signal.

Assay [3] has as its target T1, RIPK1 kinase. As to the kind of experiment: In vitro RIPK1 kinase activity assay (ADP-Glo), inhibition by compounds at 1 μM. The assay is classed as biochemical. Particulars: compound 1 μM; ATP 10 μM; MBP substrate 100 μg/mL; read-out: RIPK1 kinase activity inhibition rate range. A digest of the protocol: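 Read by ADP-Glo chemiluminescence as percent inhibition: RIPK1 kinase, 15-min room-temperature compound preincubation, then 1-h reaction with MBP (100 μg/mL final) and ATP (10 μM final). Enzyme level was set by titration.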

As for `COC(=O)C1(C#Cc2ccc3c(c2)N(C)C(=O)[C@@H](NC(=O)C(=O)NCCc2ccccc2)CO3)CC1` [Example 96, methyl (S)-1-((5-methyl-4-oxo-3-(2-oxo-2-(phenethylamino)acetamido)-2,3,4,5-tetrahydrobenzo[b][1,4]oxazepin-7-yl)ethynyl)cyclopropane-1-carboxylate], in assay [1], the “Inhibition rate range of compounds (1 μM) on U937 cell necroptosis” value (“Inhibition rate range of compounds” below) is given as “B (B: 50-89%)”. In assay [2], the IC50 (commonly the concentration that gives 50% inhibition) is less than 0.1 µM. The inhibition (in general, the share of the control response that was lost under treatment) at 1 µM in assay [3] was not below 75%.

Take `CN1C(=O)[C@@H](NC(=O)C(=O)NCCc2cccs2)COc2ccccc21` [Example 97, (S)—N^1-(5-methyl-4-oxo-2,3,4,5-tetrahydrobenzo[b][1,4]oxazepin-3-yl)-N^2-(2-(thiophen-2-yl)ethyl)oxalamide]: the “Inhibition rate range of compounds” value in assay [1] is listed as “A (A: ≥90%)”. In addition, in assay [2], the IC50 was less than 0.1 µM. Besides, the inhibition at 1 µM in assay [3] was not below 75%.

For `CN1C(=O)[C@@H](NC(=O)C(=O)NCCc2ccsc2)COc2ccccc21` [Example 98, (S)—N-(5-methyl-4-oxo-2,3,4,5-tetrahydrobenzo[b][1,4]oxazepin-3-yl)-N^2-(2-(thiophen-3-yl)ethyl)oxalamide], in assay [1], the “Inhibition rate range of compounds” value is “A (A: ≥90%)”. Further, the IC50 in assay [2] is less than 0.1 µM. Besides, the inhibition at 1 µM in assay [3] is not below 75%.
